Source: patent publication US4146631A, “Benzamide derivatives” (May & Baker Limited, priority 1976, dated 1979)

Tests used:
[1] = system: passive cutaneous anaphylactic (PCA) reaction; test: Passive cutaneous anaphylactic (PCA) reaction, reagin-allergen combination, in rats; type: in vivo; settings: Rattus norvegicus; for ED100: intravenous, just before injection of allergen, read-out: ED100 (intravenous dose which produces 100% inhibition of the PCA reaction); for inhibition in vivo at 100 mg/kg: oral dose of 100 mg/kg
Excerpt: In pharmacological tests the benzamide derivatives of general formula I suppress the passive cutaneous anaphylactic (PCA) reaction resulting from combination of tissue-fixed reaginic antibodies with the appropriate antigenic material (termed reagin-allergen combination) and carried out in an essentially similar manner to that described by Ogilvie [Nature (Lond.), (1964), 204, 91-92; Immunology, (1967), 12, 112-131]. In the method used to test these compounds sera were obtained from rats which had been infected with larvae of the nematode parasite Nippostrongylus brasiliensis; as a result of the parasitic infestation reaginic antibodies are elaborated in the host mammal and are found in sera removed from such animals. Other, non-infected, rats received intradermal injections of appropriate dilutions of such sera and were then given the allergenic material along with Evans' blue dye intravenously forty-eight hours later.
The allergenic material consisted of supernatant fluid after centrifugation of homogenates of adult Nippostrongylus brasiliensis worms which had been macerated in Tyrode's solution. The sites of PCA reactions were visualised by the effusion of Evan's blue dye from the circulation into those areas as a result of increased capillary permeability caused by the release of biologically-active substances from cells where reagin-allergen combination had occurred. The new compounds when given intravenously to the rats just before injection of allergen, or administered orally thirty minutes before intravenous injection of allergen, were able to prevent the development of the PCA reaction, as shown below in Table I, Table II and Table III.

[2] = Acute oral toxicity in mice; settings: mouse, in vivo, highest dose used 1000 mg/kg, read-out: LD50 (doses lethal to 50% of mice tested)
Excerpt: Mice were each treated orally with one of the compounds of formula I, and they were observed daily until there had been at least 3 consecutive days without any deaths. The LD50 figures obtained (doses lethal to 50% of mice tested) are shown below in Table IV, expressed in mg/kg animal body weight.
The symbol ">" means "greater than" in this specification. Where the LD50 is said to be ">1000," a more precise estimation of the LD50 was not possible because the numbers of deaths was too small, even at the highest dose used, 1000 mg/kg.

[3] = Acute intravenous toxicity in mice; settings: mouse, in vivo, triethanolamine salt (T)
Excerpt: Mice were each treated intravenously with an aqueous solution of the triethanolamine salt or sodium salt of one of the compounds of formula I, and they were observed until there had been at least 3 consecutive days without any deaths. The LD50 figures obtained (doses lethal to 50% of mice tested) are shown below in Table V, expressed in mg/kg animal body weight. In Table V, "Na" means that the sodium salt was used and "T" means that the triethanolamine salt was used.
The aqueous solutions were prepared as follows:
A mixture of the test compound and water was treated gradually with triethanolamine until complete solution occurred. The solution was then diluted with water to a concentration of test compound of either 1% w/v or 2% w/v.
The test compound was dissolved in aqueous sodium hydroxide (1N) and the solution was brought to pH 8 by treatment with hydrochloric acid. The solution was then diluted with water to a concentration of test compound of 2% w/v.
Various volumes of these solutions were then administered to the mice.

[4] = thirty minutes before intravenous allergen

Q: For CCCc1cc(C(C)=O)c(O)c(C(=O)Nc2nnn[nH]2)c1 [Compound CD, 3-acetyl-2-hydroxy-5-propyl-N-(tetrazol-5-yl)benzamide], which ED100 [1] is on record?
A: 0.1 mg/kg

Q: And the inhibition in vivo at 100 mg/kg [1, 4]?
A: 64%

Q: And the LD50 [2]?
A: > 1000 mg/kg

Q: And the LD50 ([3]; 2% w/v test solution)?
A: 250 mg/kg

Q: Which ED100 [1] does the source give for CCCC(=O)c1cc(CC)cc(C(=O)Nc2nnn[nH]2)c1O [Compound CG, 3-butyryl-5-ethyl-2-hydroxy-N-(tetrazol-5-yl)benzamide] here?
A: 0.1 mg/kg

Q: And the inhibition in vivo at 100 mg/kg [1, 4]?
A: 55%

Q: What about the ED50 ([1]; oral, thirty minutes before intravenous allergen, read-out: ED50 (oral dose which produces 50% inhibition of the PCA reaction)) of the same compound?
A: 2.2 mg/kg

Q: And the LD50 [2]?
A: > 1000 mg/kg

Q: What about the LD50 ([3]; 1% w/v solution for lower doses, 2% w/v for higher doses) of the same compound?
A: 270 mg/kg

Q: With CC(=O)c1cc([N+](=O)[O-])cc(C(=O)Nc2nnn[nH]2)c1O [Compound CS, 3acetyl-2-hydroxy-5-nitro-N-(tetrazol-5-yl)benzamide] as the compound, how does the ED100 [1] read?
A: 0.1 mg/kg

Q: What about the inhibition in vivo at 100 mg/kg [1, 4] of the same compound?
A: 54%

Q: What about the LD50 [2] of the same compound?
A: > 1000 mg/kg

Q: And the LD50 ([3]; 2% w/v test solution)?
A: 780 mg/kg
